Reference: publication PMC8986850, “Development and exploration of novel substituted thiosemicarbazones as inhibitors of aldose reductase via in vitro analysis and computational study” (Scientific Reports, 2022)

How the values were obtained:
ALR1 = molecular target: T1, ALR1 (Bos taurus, UniProt Q3ZCJ2); test: ALR1 enzyme inhibition assay (enzyme extracted from calf kidneys); assay type: biochemical, bovine; conditions: bovine kidney ALR1, 100 µM inhibitor; read-out: I (%, 100 µM) (ALR1)
T1 construct: The calf’s kidneys were obtained after slaughtering and dissection; from tissue; host or cells: calf kidneys
T1 sequence (Q3ZCJ2 whole entry): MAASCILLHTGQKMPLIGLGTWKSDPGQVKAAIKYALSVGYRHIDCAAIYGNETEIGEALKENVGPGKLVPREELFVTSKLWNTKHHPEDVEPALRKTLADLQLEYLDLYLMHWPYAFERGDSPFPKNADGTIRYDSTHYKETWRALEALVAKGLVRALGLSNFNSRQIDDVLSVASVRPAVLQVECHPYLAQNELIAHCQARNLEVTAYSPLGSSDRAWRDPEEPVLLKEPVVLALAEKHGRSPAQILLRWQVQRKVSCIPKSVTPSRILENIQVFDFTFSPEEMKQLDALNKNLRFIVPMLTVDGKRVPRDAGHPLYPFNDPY
Experimental: Compounds 3a-o were tested against ALR2 to evaluate their inhibitory potential against aldose reductase whereas selectivity was determined via performing ALR1 inhibition assay. For the enzyme inhibition assay, ALR2 and ALR1 were extracted from bovine sources (ALR2 from eyes and ALR1 from kidneys). Moreover, inhibitions studies were also carried out on the expressed ALR2 (human AKR1B1) and inhibition data for ALR2- bovine source and expressed enzyme was compared and analyzed. The protocols for enzyme extraction and expression in the bacterial system are included in the section of “Supporting information”. […] For the purpose of comparison and validation of enzyme inhibition data, these compounds were tested against human AKR1B1 (hAKR1B1) expressed in E. coli BL21 (DE3). We found a similar pattern of enzyme inhibition for the synthesized compounds against extracted enzyme (ALR2) as well as expressed enzyme (hAKR1B1).
(§1) For the determination of enzyme activity of ALR1 and ALR2, 100 µL of reaction mixture was composed of 20 µL of buffer (100 mM sodium phosphate, pH 6.2), 30 µL of enzyme extract, 20 µL of substrate (10 mM), 20 µL of cofactor (0.1 mM of NADPH) and 10 µL of test compound (1 mM)[6],[21]. The reaction mixture without cofactor was incubated at 32°C for 10 min, then the enzymatic reaction was initiated with the addition of NADPH and monitored for 5 minutes. Similar protocols were followed for ALR1 and ALR2, however the substrate was different for each enzyme, with sodium-D-glucoronate and DL-glyceraldehyde used as the substrates for the ALR1 and ALR2 assays, respectively. […] In addition, similar protocols were adopted for human AKR1B1 that was expressed in E. coli BL21 (DE3), though the determined protein concentration was 12 µg/mL for the expressed enzyme. Detailed protocols for the preparation of ALR1, ALR2 and expressed human AKR1B1 can be found in the supporting information.
(§2) The newly synthesized N-substitute thiosemicarbazones (3a-o) were dissolved in 100% DMSO and diluted with deionized water, keeping the DMSO concentration equal to 0.1% in the assay.
The calf’s kidneys were obtained after slaughtering and dissection, dissolved in 3 volumes of sodium phosphate buffer (10mM) which is composed of 2.0 mM EDTA, 2.5mM β-mercaptoethanol, 0.25M solution of sucrose at pH 7.25. First, the homogenisation was carried out then centrifugation of the homogenate was performed at 12000 x g at 0-2^◦C for 30 minutes. The precipitates containing insoluble lipids were discarded and the collected supernatant layer was treated with 40% saturation of ammonium sulphate. This liquid mixture was subjected to centrifugation at 11000 x g at 0-2^◦C for 30 minutes. Now, precipitates were again discarded and supernatant was collected and treated with 50% ammonium sulphate and procedure was repeated in the same manner as in previous step. In the last step, the saturation of ammonium sulphate was increased up to 75% and supernatant was subjected to same parameter of centrifugation. At this final step, precipitates were obtained and supernatant layer was discarded. The obtained material of precipitates was composed of ALR1and redissolved in initial buffer that was used during homogenisation. Finally, material was dialyzed overnight with same buffer system. The dialyzed fractions containing ALR1 were stored at -80^◦C for further use[5].

ALR2 = molecular target: T2, ALR2 (Bos taurus, UniProt P16116); test: ALR2 enzyme inhibition assay (enzyme extracted from calf lenses); assay type: biochemical, bovine; conditions: for IC50: bovine lens ALR2, substrate DL-glyceraldehyde, mean ± SEM of three measurements; for inhibition at 100 µM: bovine lens ALR2, 100 µM inhibitor, read-out: I (%, 100 µM) (ALR2) (converted)
T2 construct: from tissue; host or cells: calf eye lenses
Experimental: Compounds 3a-o were tested against ALR2 to evaluate their inhibitory potential against aldose reductase whereas selectivity was determined via performing ALR1 inhibition assay. For the enzyme inhibition assay, ALR2 and ALR1 were extracted from bovine sources (ALR2 from eyes and ALR1 from kidneys). Moreover, inhibitions studies were also carried out on the expressed ALR2 (human AKR1B1) and inhibition data for ALR2- bovine source and expressed enzyme was compared and analyzed. The protocols for enzyme extraction and expression in the bacterial system are included in the section of “Supporting information”. […] For the purpose of comparison and validation of enzyme inhibition data, these compounds were tested against human AKR1B1 (hAKR1B1) expressed in E. coli BL21 (DE3).
as §1, §2
The extraction of ALR2 was carried out from calf lenses via adopting method described in
in (Hayman and Kinoshita 1965) with little modification. The lenses were obtained from slaughterhouse immediately after calf’s slaughtering and stored at -20^◦C until further use. These lense (150-170g) were subjected to homogenization with about three times volume of cold distilled water and then centrifugation was carried out for the homogenate at 10,000 x g for 14 minutes for removal of insoluble lipids particles. Precipitates were discarded and supernatant layer was subjected to 40% saturation of ammonium sulphate and again centrifugation was performed with same parameters for 14 minutes and again precipitates were discarded. […] In the last step, the supernatant was subjected to 75% of saturation with ammonium sulphate to obtain ALR2. Now, the precipitates were collected instead supernatant because precipitated protein was the expected desired ALR2. The precipitated enzyme (ALR2) was redissolved in 50mM solution of sodium chloride and dialyzed for 24 hours against 50mM solution (3.5L) of NaCl. The volume was recorded before and after dialysis, then dialyzed material was treated with liquid nitrogen. The extracted ALR2 was stored in 1mL Eppendorf tube in deep freezer at -80 ^◦C till further enzymatic studies.

human AKR1B1 (hAKR1B1) = molecular target: T3, human AKR1B1 (hAKR1B1) (Homo sapiens, UniProt P15121); test: Inhibition of expressed human AKR1B1 (E. coli BL21 (DE3)); assay type: biochemical; conditions: for IC50: human AKR1B1 expressed in E. coli BL21 (DE3), mean ± SEM of three measurements; for inhibition at 100 µM: human AKR1B1 expressed in E. coli, 100 µM inhibitor, read-out: I (%, 100 µM) (AKR1B1)
T3 construct: made in house; host or cells: E. coli BL21 (DE3)
Experimental: For the enzyme inhibition assay, ALR2 and ALR1 were extracted from bovine sources (ALR2 from eyes and ALR1 from kidneys). Moreover, inhibitions studies were also carried out on the expressed ALR2 (human AKR1B1) and inhibition data for ALR2- bovine source and expressed enzyme was compared and analyzed. The protocols for enzyme extraction and expression in the bacterial system are included in the section of “Supporting information”. […] For the purpose of comparison and validation of enzyme inhibition data, these compounds were tested against human AKR1B1 (hAKR1B1) expressed in E. coli BL21 (DE3).
as §1, with “The reaction mixture without cofactor was incubated at 32°C for 10 min, then the enzymatic reaction was initiated with the addition of NADPH and monitored for 5 minutes.” left out
as §2
The expression plasmid for aldose reductase (pDONR223_AKR1B1_WT) was gift from Addgene in stable culture. Streaking of this culture has been carried out on LB Agar plate then incubated overnight, after growth of colonies , inoculation was performed in LB medium then incubated this medium in shaking incubator at 37 °C. After 48 hours turbidity was measured when OD=0.6 then some of bacterial growth was prepared as 50% glycerol stock. Others are subjected to plasmid isolation following method Miniprep. Meanwhile E. Coli BL21 De3 cells were made competent then transformation with extracted plasmid (AKR1B1) had been carried out heat shock method. Transformed cell ( E.Coli BL21 DE3+AKR1B1) were grown in 37 °C in shaking incubator for 48 hr. The selection for transformed cells was carried out with the help of antibiotic (spectinomycin 50µg/ml). […] For the expression of aldose reductase , E.coli BL21DE3 were induced with of IPTG(Isopropyl-d-thiogalactopyranoside)[3]. […] The expressed enzyme was stabilized by addition 10 mM Tris–HCl buffer, 0.5 mM EDTA, 5 mM β-marcaptoethanol at pH 8.0 and 20% (v/v) glycerol. Cells were lysed with lysis buffer and then precipitation with ammonium sulfate up to 80% saturation was done . the expressed enzyme was dialyzed overnight against tris buffer. Protein quantification was performed following Bradford protein assay. Aliqoutes were stored at -80 refrigerator.

[1] = DPPH radical scavenging activity; conditions: 100 µM compound, methanolic DPPH 0.025 mg/mL, 517 nm
Experimental: DPPH (2,2-diphenyl-1-picrylhydrazyl) was used to explore the free radical quenching ability of 3a-o so as to provide a gauge of their antioxidant potential. The experiment was conducted according to a previously reported protocol with slight modifications. Percent free radical scavenging activities (% FRSA) of 3a-o were determined by spectrophotometric analysis at 517 nm using a homogenous mixture of methanolic DPPH (0.025 mg/mL) and a 100 µM solution of the tested compound, with ascorbic acid used as a positive control (Fig. 3).

| inhibition at 100 µM (ALR1) [%] | IC50 (ALR2) [µM] | melting point [°C] | IC50 (human AKR1B1 (hAKR1B1)) [µM] | inhibition at 100 µM (ALR2) [%] | inhibition at 100 µM (human AKR1B1 (hAKR1B1)) [%] | Compound | % FRSA (percent free radical scavenging activity) [1] [%] |
| --- | --- | --- | --- | --- | --- | --- | --- |
| 4.27 to 26.2 | 3.12 ± 0.0031 | 184 to 186 | 3.04 ± 0.0034 | – | – | CC(C)(C)c1cc(C=NNC(=S)NCc2ccc(Cl)cc2)c(O)c(C(C)(C)C)c1 [Compound 3f, N-(4-chlorobenzyl)-2-(3,5-di-tert-butyl-2-hydroxybenzylidene)hydrazine carbothioamide] | 82.98 |
| 4.27 to 26.2 | 4.01 ± 0.0021 | 193 to 195 | 2.75 ± 0.003 | – | – | CC(C)(C)c1cc(C=NNC(=S)Nc2cccc(Cl)c2Cl)c(O)c(C(C)(C)C)c1 [Compound 3j, 2-(3,5-di-tert-butyl-2-hydroxybenzylidene)-N-(2,3-dichlorophenyl)hydrazine carbothioamide] | 89.75 |
| ≤ 31.6 | – | 186 to 188 | – | ≤ 44.6 | 41.2 | Cc1ccc(NC(=S)NN=Cc2cc(C(C)(C)C)cc(C(C)(C)C)c2O)cc1 [Compound 3k, 2-(3,5-di-tert-butyl-2-hydroxybenzylidene)-N-(p-tolyl)hydrazinecarbothioamide] | 86.60 |
| ≤ 29.9 | – | 174 to 176 | – | ≤ 39.1 | 24.9 | CC(C)(C)c1cc(C=NNC(=S)NCCc2ccccc2)c(O)c(C(C)(C)C)c1 [Compound 3o, 2-(3,5-di-tert-butyl-2-hydroxybenzylidene)-N-phenethylhydrazinecarbothioamide] | 83.02 |
